Source: US8138159B2, “Composition for inhibiting function of human Flt3” (Takara Bio Inc., priority 2003, dated 2012)

Key:
Type in all cases: cell-based, human
[1] = system: EoL1 cells (WT-highly expressing); assay: cell growth activity, Premix WST1 (Example 2)
Protocol: (§1) The cells placed in a 96-well plate at a density of 2×10^4 cells/well were cultured in an RPMI medium (containing 10% by volume FBS). The cells were transfected with each of the synthesized (10 nM each) siRNAs, and after 20 hours, the cell growth activity was determined with Premix WST1 reagent (trade name, manufactured by TAKARA BIO INC.). Relative growth ability (%) compared with the growth ability of the control (cells subjected to transfection without adding an siRNA) was determined. Each experiment was carried out with n=3, and the mean was determined.

[2] = system: HL60 cells (WT-low expressing); assay: cell growth activity, Premix WST1 (Example 2)
Protocol: as §1

[3] = system: MV4-11 cells (ITD mutation-highly expressing); assay: cell growth activity, Premix WST1 (Example 2)
Protocol: as §1

[4] = system: MV4-11 (ITD mutation) cells; assay: cell growth with siRNA alone or siRNA cocktail, WST-1 (Example 7); conditions: final concentration 1.2 μM, electroporation, 72 hours, n=6 mean
Protocol: As the composition of the present invention, a cocktail containing the synthesized siRNA1, 2 and 3, or siRNA3 alone, was examined for its growth inhibitory activity on MV4-11 (ITD mutation) cells. The synthesized siRNA1, 2 and 3 used were the same as in item (1) of Example 1 above.
A medium for MV4-11 cells used was the same as in item (2) of above Example 1, and the cells were cultured at 37° C. for 24 hours in an RPMI 1640 medium (manufactured by TAKARA BIO INC.) supplemented with 10% by volume fetal bovine serum (FBS) (referred to hereinafter as the culture medium) in the presence of 5% by volume CO2. Then, transfection of the cells with the synthesized siRNA3 was carried out in the following manner. […]
The cells added in an amount of 100 μl/well on the 96-well plate prepared in item (2) above were cultured at 37° C. in the presence of 5% by volume CO2. Seventy-two hours after the culture was initiated, the growth activity of the cells was determined using Premix WST-1 reagent (manufactured by TAKARA BIO INC.) according to a manufacturer's protocol. Each experiment was carried out with n=6, and the mean was determined. The relative growth ratio (%) as compared with the growth ability of the cells transfected with the control siRNA was determined.

[5] = siRNA 10 nM, after 20 hours, n=3 mean, control = transfection without siRNA

siRNA3: siRNA to juxtamembrane region (Flt3/JMD region) (target SEQ ID NO: 7); sense SEQ ID NO: 8, antisense SEQ ID NO: 9 (sense UAUGAAUAUGAUCUCAAAUTT; antisense AUUUGAGAUCAUAUUCAUATT; chemistry not given here)
Ratio of cell-growth activation defining RNA interference effect in HL60 as 1 [1]: (0.50)
Relative growth ability (%) compared with the control [1, 5]: 45.1%
Ratio of cell-growth activation defining RNA interference effect in HL60 as 1 ([2]; HL60, the reference itself): (1)
Relative growth ability (%) compared with the control ([2]; HL60, siRNA 10 nM, after 20 hours, n=3 mean, control = transfection without siRNA): 90.3%
Ratio of cell-growth activation defining RNA interference effect in HL60 as 1 [3]: (0.41)
Relative growth ability (%) compared with the control [3, 5]: 37.5%
relative growth ratio (%) as compared with the cells transfected with the control siRNA (growth inhibition to) [4]: 46.5%
